Laboratory results published in the NIST ThermoML archive (doi:10.1021/je700236c).
Where “and” joins values, the source holds several entries; their conditions need not be identical. Identical values can stand only once.

Conditions: Gas, Buoyancy - hydrostatic balance with magnetic suspension - two sinkers

FC(F)C(F)(F)F [pentafluoroethane]
Conditions	mass density
283.15 K, 207.2 kPa	10.978 kg/m3 and 10.98 kg/m3
283.15 K, 442.7 kPa	24.675 kg/m3 and 24.667 kg/m3
283.15 K, 617.4 kPa	35.904 kg/m3 and 35.92 kg/m3
283.15 K, 710.7 kPa	42.388 kg/m3
283.15 K, 710.8 kPa	42.398 kg/m3
283.15 K, 758.3 kPa	45.855 kg/m3 and 45.853 kg/m3
283.15 K, 811.7 kPa	49.881 kg/m3 and 49.877 kg/m3
283.15 K, 828 kPa	51.141 kg/m3 and 51.137 kg/m3
283.15 K, 857 kPa	53.429 kg/m3 and 53.417 kg/m3
283.15 K, 872.2 kPa	54.64 kg/m3
283.15 K, 872.3 kPa	54.652 kg/m3
283.15 K, 880 kPa	55.27 kg/m3 and 55.283 kg/m3
283.15 K, 889.1 kPa	56.021 kg/m3
283.15 K, 889.2 kPa	56.023 kg/m3
283.15 K, 901.7 kPa	57.048 kg/m3 and 57.055 kg/m3
293.15 K, 205.9 kPa	10.502 kg/m3
293.15 K, 206 kPa	10.492 kg/m3
293.15 K, 413.1 kPa	21.853 kg/m3
293.15 K, 413.2 kPa	21.867 kg/m3
293.15 K, 605 kPa	33.264 kg/m3 and 33.278 kg/m3
293.15 K, 799.7 kPa	45.976 kg/m3
293.15 K, 799.8 kPa	45.993 kg/m3
293.15 K, 901.5 kPa	53.187 kg/m3 and 53.196 kg/m3
293.15 K, 1000.4 kPa	60.669 kg/m3
293.15 K, 1000.5 kPa	60.666 kg/m3
293.15 K, 1051.5 kPa	64.739 kg/m3 and 64.718 kg/m3
293.15 K, 1101.2 kPa	68.839 kg/m3
293.15 K, 1101.3 kPa	68.86 kg/m3
293.15 K, 1133.2 kPa	71.588 kg/m3 and 71.578 kg/m3
293.15 K, 1149.6 kPa	73.019 kg/m3
293.15 K, 1149.7 kPa	73.016 kg/m3
293.15 K, 1170.5 kPa	74.869 kg/m3
293.15 K, 1170.6 kPa	74.882 kg/m3
293.15 K, 1181.8 kPa	75.887 kg/m3
293.15 K, 1182 kPa	75.908 kg/m3
293.15 K, 1192.1 kPa	76.823 kg/m3
293.15 K, 1192.2 kPa	76.841 kg/m3
293.15 K, 1200.9 kPa	77.624 kg/m3
293.15 K, 1201 kPa	77.644 kg/m3
303.15 K, 225.1 kPa	11.079 kg/m3 and 11.067 kg/m3
303.15 K, 411.9 kPa	20.874 kg/m3 and 20.883 kg/m3
303.15 K, 602.3 kPa	31.549 kg/m3 and 31.562 kg/m3
303.15 K, 800.1 kPa	43.526 kg/m3 and 43.535 kg/m3
303.15 K, 999.2 kPa	56.733 kg/m3
303.15 K, 999.3 kPa	56.74 kg/m3
303.15 K, 1202.4 kPa	71.762 kg/m3 and 71.771 kg/m3
303.15 K, 1299.2 kPa	79.657 kg/m3
303.15 K, 1299.4 kPa	79.674 kg/m3
303.15 K, 1406.6 kPa	89.099 kg/m3
303.15 K, 1406.7 kPa	89.124 kg/m3
303.15 K, 1450.2 kPa	93.212 kg/m3 and 93.199 kg/m3
303.15 K, 1481.2 kPa	96.221 kg/m3
303.15 K, 1481.3 kPa	96.231 kg/m3
303.15 K, 1505.2 kPa	98.609 kg/m3 and 98.623 kg/m3
303.15 K, 1520.5 kPa	100.175 kg/m3
303.15 K, 1520.6 kPa	100.195 kg/m3
303.15 K, 1537.3 kPa	101.933 kg/m3
303.15 K, 1537.4 kPa	101.917 kg/m3
303.15 K, 1565.1 kPa	104.879 kg/m3
303.15 K, 1565.8 kPa	104.956 kg/m3
313.15 K, 203.4 kPa	9.623 kg/m3 and 9.618 kg/m3
313.15 K, 404.5 kPa	19.688 kg/m3
313.15 K, 404.6 kPa	19.685 kg/m3
313.15 K, 602.7 kPa	30.217 kg/m3 and 30.212 kg/m3
313.15 K, 801.5 kPa	41.504 kg/m3 and 41.496 kg/m3
313.15 K, 1002 kPa	53.773 kg/m3 and 53.76 kg/m3
313.15 K, 1199.3 kPa	66.926 kg/m3 and 66.915 kg/m3
313.15 K, 1398.2 kPa	81.578 kg/m3
313.15 K, 1398.3 kPa	81.585 kg/m3
313.15 K, 1604.4 kPa	98.7 kg/m3
313.15 K, 1604.5 kPa	98.71 kg/m3
313.15 K, 1705.9 kPa	108.153 kg/m3 and 108.152 kg/m3
313.15 K, 1814.1 kPa	119.179 kg/m3 and 119.18 kg/m3
313.15 K, 1900.7 kPa	128.938 kg/m3 and 128.932 kg/m3
313.15 K, 1951.9 kPa	135.196 kg/m3 and 135.193 kg/m3
313.15 K, 1976.7 kPa	138.379 kg/m3 and 138.387 kg/m3
313.15 K, 1990.3 kPa	140.201 kg/m3 and 140.173 kg/m3
313.15 K, 2001.8 kPa	141.759 kg/m3
313.15 K, 2002 kPa	141.763 kg/m3
323.15 K, 196.2 kPa	8.951 kg/m3 and 8.953 kg/m3
323.15 K, 495.8 kPa	23.505 kg/m3 and 23.498 kg/m3
323.15 K, 798.1 kPa	39.455 kg/m3 and 39.458 kg/m3
323.15 K, 999.5 kPa	50.95 kg/m3
323.15 K, 999.6 kPa	50.954 kg/m3
323.15 K, 1199 kPa	63.156 kg/m3 and 63.162 kg/m3
323.15 K, 1399 kPa	76.417 kg/m3 and 76.411 kg/m3
323.15 K, 1599.7 kPa	90.933 kg/m3 and 90.927 kg/m3
323.15 K, 1798.9 kPa	106.993 kg/m3
323.15 K, 1799 kPa	106.996 kg/m3
323.15 K, 2000.3 kPa	125.421 kg/m3 and 125.435 kg/m3
323.15 K, 2100.4 kPa	135.708 kg/m3 and 135.695 kg/m3
323.15 K, 2201.4 kPa	147.071 kg/m3
323.15 K, 2201.5 kPa	147.082 kg/m3
323.15 K, 2301.3 kPa	159.592 kg/m3 and 159.61 kg/m3
323.15 K, 2350 kPa	166.311 kg/m3
323.15 K, 2350.1 kPa	166.298 kg/m3
323.15 K, 2400.2 kPa	173.712 kg/m3 and 173.74 kg/m3
323.15 K, 2430 kPa	178.427 kg/m3
323.15 K, 2430.1 kPa	178.468 kg/m3
323.15 K, 2451.8 kPa	182.037 kg/m3 and 182.009 kg/m3
323.15 K, 2469.3 kPa	185.047 kg/m3 and 185.021 kg/m3
